Measured values as given in ChEMBL document CHEMBL6078697, “Synthesis and Evaluation of 9-epi-Koshidacin B as Selective Inhibitor of Histone Deacetylase 1” (J Nat Prod, 2024).

Experiments:
[1] = molecular target: T1, Histone deacetylase 1 (Homo sapiens, UniProt Q13547); assay: Inhibition of HDAC1 (unknown origin)
[2] = molecular target: T1, Histone deacetylase 1; assay: Binding affinity to HDAC1 (unknown origin) assessed as inhibition constant
[3] = molecular target: T1, Histone deacetylase 1; assay: Inhibition of HDAC1 (unknown origin) using RHKK(Ac)AMC as substrate
[4] = Selectivity ratio of IC50 for inhibition of HDAC6 (unknown origin) to IC50 for inhibition of HDAC1 (unknown origin)
[5] = Selectivity ratio of IC50 for inhibition of HDAC4 (unknown origin) to IC50 for inhibition of HDAC1 (unknown origin)
[6] = molecular target: T2, Protein deacetylase HDAC6 (Homo sapiens, UniProt Q9UBN7); assay: Inhibition of HDAC6 (unknown origin) using RHKK(Ac)AMC as substrate
T2 sequence (Q9UBN7 whole entry): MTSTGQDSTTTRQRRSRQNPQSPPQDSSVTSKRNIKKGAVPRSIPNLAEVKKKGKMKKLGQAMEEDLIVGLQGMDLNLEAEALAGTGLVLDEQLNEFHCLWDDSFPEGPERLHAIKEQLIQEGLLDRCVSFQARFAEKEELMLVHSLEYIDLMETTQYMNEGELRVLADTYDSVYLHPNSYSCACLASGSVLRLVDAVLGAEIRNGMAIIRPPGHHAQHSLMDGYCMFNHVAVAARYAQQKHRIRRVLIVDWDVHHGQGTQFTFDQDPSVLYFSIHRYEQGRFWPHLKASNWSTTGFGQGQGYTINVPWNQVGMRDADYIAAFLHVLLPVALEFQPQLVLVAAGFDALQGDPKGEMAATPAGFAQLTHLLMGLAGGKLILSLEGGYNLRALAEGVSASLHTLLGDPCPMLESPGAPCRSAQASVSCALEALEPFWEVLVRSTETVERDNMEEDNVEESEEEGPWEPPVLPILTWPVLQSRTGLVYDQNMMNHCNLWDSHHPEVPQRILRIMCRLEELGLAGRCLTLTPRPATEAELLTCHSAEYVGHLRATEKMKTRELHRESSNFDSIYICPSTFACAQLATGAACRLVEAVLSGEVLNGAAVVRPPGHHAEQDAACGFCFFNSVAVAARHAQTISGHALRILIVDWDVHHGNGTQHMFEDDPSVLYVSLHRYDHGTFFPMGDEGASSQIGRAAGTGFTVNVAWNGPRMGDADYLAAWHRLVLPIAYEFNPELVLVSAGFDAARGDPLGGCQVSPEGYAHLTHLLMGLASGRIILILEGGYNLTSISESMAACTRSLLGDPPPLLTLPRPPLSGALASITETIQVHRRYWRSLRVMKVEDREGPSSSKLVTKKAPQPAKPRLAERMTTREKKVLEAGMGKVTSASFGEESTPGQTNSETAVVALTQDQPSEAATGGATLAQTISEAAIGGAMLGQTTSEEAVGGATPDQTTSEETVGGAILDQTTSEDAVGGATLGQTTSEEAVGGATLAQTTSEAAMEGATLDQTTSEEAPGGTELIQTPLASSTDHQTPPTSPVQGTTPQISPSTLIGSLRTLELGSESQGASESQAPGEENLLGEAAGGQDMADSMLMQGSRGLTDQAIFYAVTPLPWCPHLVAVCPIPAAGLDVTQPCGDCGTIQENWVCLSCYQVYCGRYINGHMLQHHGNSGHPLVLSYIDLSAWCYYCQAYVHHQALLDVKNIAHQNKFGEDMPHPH

[7] = molecular target: Histone deacetylase 4 (Homo sapiens, UniProt P56524); assay: Inhibition of HDAC4 (unknown origin) using trifluoroacetyl lysine as substrate
Sequence of Histone deacetylase 4 (P56524 whole entry): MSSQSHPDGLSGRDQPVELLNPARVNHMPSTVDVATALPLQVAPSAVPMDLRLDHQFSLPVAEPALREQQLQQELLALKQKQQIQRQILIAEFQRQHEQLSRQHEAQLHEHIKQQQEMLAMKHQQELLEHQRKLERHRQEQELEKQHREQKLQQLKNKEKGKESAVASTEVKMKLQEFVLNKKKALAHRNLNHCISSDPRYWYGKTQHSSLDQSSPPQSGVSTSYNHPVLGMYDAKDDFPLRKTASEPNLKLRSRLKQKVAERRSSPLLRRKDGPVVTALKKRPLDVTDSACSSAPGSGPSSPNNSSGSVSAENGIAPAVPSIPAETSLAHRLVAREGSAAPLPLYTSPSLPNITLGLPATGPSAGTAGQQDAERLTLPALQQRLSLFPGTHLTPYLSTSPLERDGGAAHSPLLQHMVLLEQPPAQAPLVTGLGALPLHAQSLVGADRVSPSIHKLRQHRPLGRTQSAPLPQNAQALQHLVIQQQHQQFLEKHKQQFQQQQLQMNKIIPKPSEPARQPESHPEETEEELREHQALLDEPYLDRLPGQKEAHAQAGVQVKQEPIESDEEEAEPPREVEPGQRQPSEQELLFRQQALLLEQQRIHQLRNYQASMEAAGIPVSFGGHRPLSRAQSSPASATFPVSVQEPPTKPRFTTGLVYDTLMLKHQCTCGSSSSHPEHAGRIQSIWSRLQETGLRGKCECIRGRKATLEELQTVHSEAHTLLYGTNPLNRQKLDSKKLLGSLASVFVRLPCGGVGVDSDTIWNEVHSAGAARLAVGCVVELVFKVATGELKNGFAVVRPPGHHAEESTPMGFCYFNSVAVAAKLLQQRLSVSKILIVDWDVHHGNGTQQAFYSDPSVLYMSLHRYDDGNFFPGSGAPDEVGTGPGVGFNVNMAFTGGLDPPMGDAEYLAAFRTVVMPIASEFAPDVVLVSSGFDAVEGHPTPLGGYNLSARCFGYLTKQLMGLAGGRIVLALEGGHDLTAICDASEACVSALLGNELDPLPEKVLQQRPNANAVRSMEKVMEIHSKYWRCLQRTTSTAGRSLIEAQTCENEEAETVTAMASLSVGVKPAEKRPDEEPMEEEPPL

T1 sequence (Q13547 whole entry): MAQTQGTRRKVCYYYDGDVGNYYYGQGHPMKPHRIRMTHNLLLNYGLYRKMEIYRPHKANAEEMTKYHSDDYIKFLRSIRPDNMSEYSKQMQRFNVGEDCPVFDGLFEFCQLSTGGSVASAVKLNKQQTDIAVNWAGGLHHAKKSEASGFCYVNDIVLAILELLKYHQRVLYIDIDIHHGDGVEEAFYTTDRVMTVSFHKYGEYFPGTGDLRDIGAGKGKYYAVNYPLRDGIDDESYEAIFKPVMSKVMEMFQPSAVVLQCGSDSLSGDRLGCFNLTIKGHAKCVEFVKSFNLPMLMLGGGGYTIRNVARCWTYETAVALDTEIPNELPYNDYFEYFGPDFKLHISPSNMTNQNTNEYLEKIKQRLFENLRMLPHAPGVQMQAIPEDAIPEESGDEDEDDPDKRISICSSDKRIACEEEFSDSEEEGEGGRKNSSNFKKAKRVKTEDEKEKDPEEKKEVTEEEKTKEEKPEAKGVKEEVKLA

Row | SMILES | Ki [2] [µM] | IC50 [3] [µM] | further results
1 | CC[C@]1(C)NC(=O)[C@H](CCCCCC(=O)[C@@H](C)O)NC(=O)[C@H]2CCCN2C(=O)[C@H](Cc2ccc(O)cc2)NC1=O |  |  | IC50 [1]: 0.0215 µM
2 | CC1(C)NC(=O)[C@H](CCCCCC(=O)[C@@H](O)CO)NC(=O)[C@H]2CCCN2C(=O)[C@H](Cc2ccccc2)NC1=O (stereo in doubt; form 2) | 22.1 |  | 
3 | CC1(C)NC(=O)[C@H](CCCCCC(=O)[C@H](O)CO)NC(=O)[C@H]2CCCN2C(=O)[C@H](Cc2ccccc2)NC1=O (stereo in doubt; form 2) | 15.8 |  | 
4 | CC1(C)NC(=O)[C@H](CCCCCC(=O)[C@H](O)CO)NC(=O)[C@H]2CCCN2C(=O)[C@H](Cc2ccccc2)NC1=O (stereo in doubt; form 1) | 5.65 |  | 
5 | C[C@@H](O)C(=O)CCCCC[C@@H]1NC(=O)[C@H]2CCCN2C(=O)[C@H](Cc2ccccc2)NC(=O)C(C)(C)NC1=O |  | 0.03 | 
6 | CC1(C)NC(=O)[C@H](CCCCCC(=O)[C@@H](O)CO)NC(=O)[C@H]2CCCN2C(=O)[C@H](Cc2ccccc2)NC1=O (stereo in doubt; form 1) | 11.2 |  | 
7 | C[C@H](O)C(=O)CCCCC[C@@H]1NC(=O)[C@H]2CCCN2C(=O)[C@H](Cc2ccccc2)NC(=O)C(C)(C)NC1=O |  | 0.33 | 
8 | CC1(C)NC(=O)[C@H](CCCCCC(=O)[C@H](O)CO)NC(=O)[C@H]2CCCN2C(=O)[C@H](Cc2ccccc2)NC1=O [listing 1 of 2 here] |  |  | Ratio IC50 [4]: 2200; Ratio IC50 [5]: 7000
9 | CC1(C)NC(=O)[C@H](CCCCCC(=O)[C@H](O)CO)NC(=O)[C@H]2CCCN2C(=O)[C@H](Cc2ccccc2)NC1=O [listing 2 of 2 here] |  | 0.145 | IC50 [6]: 319 µM; IC50 [7]: 1000 µM
10 | CC1(C)NC(=O)[C@H](CCCCCC(=O)[C@@H]2CO2)NC(=O)[C@H]2CCCN2C(=O)[C@H](Cc2ccccc2)NC1=O |  | 0.00015 | IC50 [1]: 1.1 µM; IC50 [6]: 1.1 µM
